Data reported in ChEMBL document CHEMBL1158545, “3'-(1,2,3-Triazol-1-yl)-3'-deoxythymidine analogs as substrates for human and Ureaplasma parvum thymidine kinase for structure-activity investigations” (Bioorg Med Chem, 2010).

T1: Thymidine kinase, cytosolic (Homo sapiens) (UniProt P04183)
T1 sequence (whole entry): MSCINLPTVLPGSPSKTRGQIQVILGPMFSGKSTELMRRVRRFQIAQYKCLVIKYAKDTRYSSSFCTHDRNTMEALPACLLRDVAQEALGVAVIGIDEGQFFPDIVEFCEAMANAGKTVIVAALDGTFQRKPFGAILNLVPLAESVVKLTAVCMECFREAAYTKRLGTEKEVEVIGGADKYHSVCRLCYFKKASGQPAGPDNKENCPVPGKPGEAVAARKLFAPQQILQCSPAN

T2: Thymidine kinase (Ureaplasma parvum serovar 3 (strain ATCC 700970)) (UniProt Q9PPP5)
T2 sequence (whole entry): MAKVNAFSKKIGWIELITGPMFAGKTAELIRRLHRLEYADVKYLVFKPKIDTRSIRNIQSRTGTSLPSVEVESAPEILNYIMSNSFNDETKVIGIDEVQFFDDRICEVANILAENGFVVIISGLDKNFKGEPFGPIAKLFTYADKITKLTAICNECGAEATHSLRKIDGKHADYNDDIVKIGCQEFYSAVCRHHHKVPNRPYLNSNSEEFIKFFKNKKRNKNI

T3: Thymidine kinase, cytosolic (Homo sapiens, UniProt P04183)
T3 sequence (P04183 whole entry): T1 sequence (whole entry)

T4: Thymidine kinase (Ureaplasma parvum serovar 3 (strain ATCC 700970), UniProt Q9PPP5)
T4 sequence (Q9PPP5 whole entry): T2 sequence (whole entry)

B1: Thymidine kinase, cytosolic (Homo sapiens), P04183 (protein)
chain: T1 sequence (whole entry)
B2: Thymidine kinase (Ureaplasma parvum serovar 3 (strain ATCC 700970)), Q9PPP5 (protein)
chain: T2 sequence (whole entry)

Legend:
[1] = biological target: T1, Thymidine kinase, cytosolic (Homo sapiens); experiment: Ratio of Vmax to Km for human TK1 relative to […]
[2] = biological target: T1, Thymidine kinase, cytosolic (Homo sapiens); experiment: Activity of human TK1 relative to ATP; design: concentration or dose not given beside the values
[3] = biological target: T2, Thymidine kinase (Ureaplasma parvum serovar 3 (strain ATCC 700970)); experiment: Ratio of Vmax to Km for Ureaplasma parvum thymidine kinase relative to dThd
[4] = biological target: T2, Thymidine kinase (Ureaplasma parvum serovar 3 (strain ATCC 700970)); experiment: Activity of Ureaplasma parvum thymidine kinase relative to dThd
[5] = biological target: T3, Thymidine kinase, cytosolic; experiment: Inhibition of human TK1 by liquid scintillation counting
Thymidine kinase = biological target: T4, Thymidine kinase; experiment: Inhibition of Ureaplasma parvum thymidine kinase by liquid scintillation counting
[6] = substrate: Cc1cn([C@H]2C[C@H](n3cc(-c4ccccn4)nn3)[C@@H](CO)O2)c(=O)[nH]c1=O; settings: Homo sapiens
[7] = substrate: Cc1cn([C@H]2C[C@H](n3cc(C(C)(C)C)nn3)[C@@H](CO)O2)c(=O)[nH]c1=O; settings: Homo sapiens
[8] = substrate: Cc1cn([C@H]2C[C@H](n3cc(CCc4ccccc4)nn3)[C@@H](CO)O2)c(=O)[nH]c1=O; settings: Homo sapiens
[9] = substrate: Cc1cn([C@H]2C[C@H](N=[N+]=[N-])[C@@H](CO)O2)c(=O)[nH]c1=O; settings: Homo sapiens
[10] = substrate: CCCCCc1cn([C@H]2C[C@H](n3cc(C)c(=O)[nH]c3=O)O[C@@H]2CO)nn1; settings: Homo sapiens
[11] = substrate: CCCc1cn([C@H]2C[C@H](n3cc(C)c(=O)[nH]c3=O)O[C@@H]2CO)nn1; settings: Homo sapiens
[12] = substrate: Cc1cn([C@H]2C[C@H](n3cc(Cc4ccccc4)nn3)[C@@H](CO)O2)c(=O)[nH]c1=O; settings: Homo sapiens
[13] = substrate: CC(=O)OCc1cn([C@H]2C[C@H](n3cc(C)c(=O)[nH]c3=O)O[C@@H]2CO)nn1; settings: Homo sapiens
[14] = substrate: Cc1cn([C@H]2C[C@H](n3cc(-c4ccccc4)nn3)[C@@H](CO)O2)c(=O)[nH]c1=O; settings: Homo sapiens
[15] = substrate: Cc1cn([C@H]2C[C@H](n3cc(-c4ccccn4)nn3)[C@@H](CO)O2)c(=O)[nH]c1=O; settings: Ureaplasma parvum
[16] = substrate: Cc1cn([C@H]2C[C@H](n3cc(C(C)(C)C)nn3)[C@@H](CO)O2)c(=O)[nH]c1=O; settings: Ureaplasma parvum
[17] = substrate: Cc1cn([C@H]2C[C@H](n3cc(CCc4ccccc4)nn3)[C@@H](CO)O2)c(=O)[nH]c1=O; settings: Ureaplasma parvum
[18] = substrate: Cc1cn([C@H]2C[C@H](N=[N+]=[N-])[C@@H](CO)O2)c(=O)[nH]c1=O; settings: Ureaplasma parvum
[19] = substrate: CCCCCc1cn([C@H]2C[C@H](n3cc(C)c(=O)[nH]c3=O)O[C@@H]2CO)nn1; settings: Ureaplasma parvum
[20] = substrate: CCCc1cn([C@H]2C[C@H](n3cc(C)c(=O)[nH]c3=O)O[C@@H]2CO)nn1; settings: Ureaplasma parvum
[21] = substrate: Cc1cn([C@H]2C[C@H](n3cc(Cc4ccccc4)nn3)[C@@H](CO)O2)c(=O)[nH]c1=O; settings: Ureaplasma parvum
[22] = substrate: CC(=O)OCc1cn([C@H]2C[C@H](n3cc(C)c(=O)[nH]c3=O)O[C@@H]2CO)nn1; settings: Ureaplasma parvum
[23] = substrate: Cc1cn([C@H]2C[C@H](n3cc(-c4ccccc4)nn3)[C@@H](CO)O2)c(=O)[nH]c1=O; settings: Ureaplasma parvum

Row | Molecule | Activity [1] | Activity [2] | Activity [3] | Activity [4] | IC50 [5] | further results
1 | Cc1cn([C@H]2C[C@H](n3cc(C(C)(C)C)nn3)[C@@H](CO)O2)c(=O)[nH]c1=O | 0.07% | 2.2% | 0.15% | 4.7% |  | 
2 | Cc1cn([C@H]2C[C@H](n3cc(-c4ccc(F)cc4)nn3)[C@@H](CO)O2)c(=O)[nH]c1=O | 1.1% | 2.6% |  | 13.7% | 44 µM | IC50 (Thymidine kinase): 71 µM
3 | Cc1cn([C@H]2C[C@H](n3cc(CCc4ccccc4)nn3)[C@@H](CO)O2)c(=O)[nH]c1=O | 0.08% | 2.4% | 0.8% | 12.3% | 60 µM | 
4 | CCCc1cn([C@H]2C[C@H](n3cc(C)c(=O)[nH]c3=O)O[C@@H]2CO)nn1 | 0.1% | 2.7% | 0.5% | 6.5% |  | 
5 | Cc1cn([C@H]2C[C@H](N=[N+]=[N-])[C@@H](CO)O2)c(=O)[nH]c1=O | 50% | 47.3% | 43% | 27.8% |  | 
6 | CC(=O)OCc1cn([C@H]2C[C@H](n3cc(C)c(=O)[nH]c3=O)O[C@@H]2CO)nn1 | 0.1% | 2.4% | 0.6% | 3.9% |  | 
7 | Cc1cn([C@H]2C[C@H](n3cc(Cc4ccccc4)nn3)[C@@H](CO)O2)c(=O)[nH]c1=O | 0.1% | 4.8% | 0.8% | 11.6% | 78 µM | IC50 (Thymidine kinase): 73 µM
8 | Cc1cn([C@H]2C[C@H](n3cc(CCO)nn3)[C@@H](CO)O2)c(=O)[nH]c1=O |  | 2.2% |  | 4.1% |  | 
9 | Cc1cn([C@H]2C[C@H](n3cc(-c4ccccc4)nn3)[C@@H](CO)O2)c(=O)[nH]c1=O | 0.2% | 2.1% | 0.7% | 5.5% | 99 µM | 
10 | Cc1cn([C@H]2C[C@H](n3cc(-c4ccccn4)nn3)[C@@H](CO)O2)c(=O)[nH]c1=O | 0.5% | 3.1% | 1.1% | 7.1% | 53 µM | 
11 | COCc1cn([C@H]2C[C@H](n3cc(C)c(=O)[nH]c3=O)O[C@@H]2CO)nn1 |  | 1.3% |  | 1.6% |  | 
12 | CCCCCc1cn([C@H]2C[C@H](n3cc(C)c(=O)[nH]c3=O)O[C@@H]2CO)nn1 | 0.3% | 1.9% | 1.6% | 7.2% |  | 
13 | B1 |  |  |  |  |  | Km [6]: 33 µM; Km [7]: 243 µM; Km [8]: 204 µM; Km [9]: 3.5 µM; Km [10]: 75 µM; Km [11]: 138 µM; Km [12]: 174 µM; Km [13]: 114 µM; Km [14]: 57 µM
14 | B2 |  |  |  |  |  | Km [15]: 30 µM; Km [16]: 259 µM; Km [17]: 104 µM; Km [18]: 2.7 µM; Km [19]: 32 µM; Km [20]: 122 µM; Km [21]: 85 µM; Km [22]: 78 µM; Km [23]: 40 µM
